# Data taken from paper PMC10584170, “Machine learning-based phenotypic imaging to characterise the targetable biology of Plasmodium falciparum male gametocytes for the development of transmission-blocking antimalarials” (PLOS Pathogens, 2023).
# Assays:
# [1] = system: P. falciparum male gametocytes; assay: P. falciparum Dual Gamete Formation Assay (PfDGFA), male readout (exflagellation); assay type: cell-based, Plasmodium falciparum NF54; settings: for Average inhibition male (%): average of replicates; for % inhibition male (individual replicates) R1: replicate R1; for % inhibition male (individual replicates) R3: replicate R3; for % inhibition male (individual replicates) R4: replicate R4; for Activity: hit = >50% inhibition in male or female readout in at least 3 replicates, 0 = no class assigned
# Method: (§1) P. falciparum NF54 (originally isolated from an imported malaria case in the Netherlands in the 1980s; BEI Resources, cat. No. MRA-1000) strain asexual parasites were maintained between 0.3–5% parasitaemia by regular passage in complete culture medium (RPMI supplemented with 25 mM HEPES, 50 μg ml^−1 hypoxanthine, 4.8 g l^−1 NaHCO3, 2mM L-glutamine, 5% pooled type AB serum, 0.5% Albumax II (Gibco)) at 4% haematocrit in washed whole blood (National Blood and Transfusion Service or Centro de Transfusiones de la Comunidad de Madrid CTCM) under a 1% O2/3% CO2/96% N2 environment. Gametocytes were induced by seeding culture flasks at 2% parasitaemia/4% haematocrit and subjecting them to daily medium changes for 14 days whilst maintaining a temperature of 37°C at all times. On Day 14, the maturity of gametocytes was assessed by quantifying male gametogenesis (exflagellation). A 20 μl sample of gametocyte culture was mixed with equal volume of ookinete medium (complete culture medium supplemented with 0.1 μM xanthurenic acid) at room temperature and transferred to a haemocytometer. After 20 min at room temperature, exflagellation was accurately quantified as described in Delves et al. 2016 [17].
# (§2) The Pf DGFA was performed as described in Delves et al. 2016 [17]. […] Plates were then incubated for 24 h at 37°C in a humidified box under a 1% O2/3% CO2/96% N2 gas mix. Gametogenesis was triggered by addition of 10 μl per well of ookinete medium + 0.27 μg ml^-1 Cy3-labelled anti-Pfs25 antibody. Plates were incubated on a metal block at 4°C for 4 min to ensure even cooling, then 28°C for a further 4 min. Exflagellation was recorded by capturing 10 frames over 1 s under brightfield illumination using a x4 objective with a 1.5x zoom (effectively x6) attached to an automated Nikon Ti fluorescence microscope. After recording exflagellation, plates were incubated for a further 24 h in the dark at 28°C to ensure maximal expression of Pfs25 by female gametes. The plates were then returned to the microscope and female gametes imaged at x6 using fluorescence microscopy.
# (§3) Exflagellation centres and female gametes were quantified using custom image analysis pipelines developed within ICY Bioimage Analysis (https://icy.bioimageanalysis.org/).
# [2] = system: P. falciparum female gametocytes; assay: P. falciparum Dual Gamete Formation Assay (PfDGFA), female readout (Pfs25-positive female gametes); assay type: cell-based, Plasmodium falciparum NF54; settings: for Average inhibition female (%): average of replicates; for % inhibition female (individual replicates) R1: replicate R1; for % inhibition female (individual replicates) R3: replicate R3; for % inhibition female (individual replicates) R4: replicate R4
# Method: as §1, §2, §3
# [3] = 2µM, 24h preincubation with gametocytes prior to induction of gametogenesis
# [4] = 2µM, 24h preincubation, number of replicates with >50% inhibition in the male readout
# [5] = 2µM, 24h preincubation, number of replicates with >50% inhibition in the female readout
# [6] = PfDGFA at 2µM, 24h preincubation with gametocytes prior to induction of gametogenesis
# [7] = PfDGFA at 2µM, 24h preincubation
# [8] = 2µM, 24h preincubation, hits selected on >50% inhibition in the male readout across replicates
# [9] = 2µM, 24h preincubation, hits selected on >50% inhibition in the female readout across replicates
# [10] = 2µM, 24h preincubation with gametocytes
# [11] = PfDGFA at 2µM, 24h preincubation with gametocytes
Compound,"Average inhibition male (%) [1, 3] [%]","% inhibition male (individual replicates) R1 [1, 3] [%]","% inhibition male (individual replicates) R3 [1, 3] [%]","% inhibition male (individual replicates) R4 [1, 3] [%]","Average inhibition female (%) [2, 3] [%]","% inhibition female (individual replicates) R1 [2, 3] [%]","% inhibition female (individual replicates) R3 [2, 3] [%]","% inhibition female (individual replicates) R4 [2, 3] [%]","% inhibition male (individual replicates) R1 [1, 6] [%]","% inhibition male (individual replicates) R3 [1, 6] [%]","% inhibition male (individual replicates) R4 [1, 6] [%]","Average inhibition male (%) [1, 7] [%]","% inhibition female (individual replicates) R1 [2, 6] [%]","% inhibition female (individual replicates) R3 [2, 6] [%]","% inhibition female (individual replicates) R4 [2, 6] [%]","Average inhibition female (%) [2, 7] [%]",also measured
C[C@H](Cc1ccc(S(=O)(=O)c2ccc(C[C@@H](C)NC[C@H](O)c3cccc(Cl)c3)cc2)cc1)NC[C@H](O)c1cccc(Cl)c1.Cl [TCMDC-131561],47.9,47.0,11.1,74.2,28.9,27.9,9.1,30.5,,,,,,,,,"HitlevelM [1, 4]: 2; HitlevelF [2, 5]: 0"
CC1(C)N=C(NC(=O)c2ccc([N+](=O)[O-])cc2)N=C(N)N1OCc1ccc2ccccc2c1 [TCMDC-131580],,,,,,,,,21.0,-18.0,-29.1,-7.9,12.5,-19.7,0.76,3.4,
CC1(C)N=C(N)N=C(N)N1OCc1cc(Cl)c(CON2C(N)=NC(N)=NC2(C)C)cc1Cl [TCMDC-131624],,,,,,,,,2.1,,-25.6,-4.5,0.3,11.6,5.2,2.9,
Cc1ccc(CON2C(N)=NC(N)=NC2(C)C)c(Cl)c1.Cc1ccc(CON2C(N)=NC(N)=NC2(C)C)cc1Cl [TCMDC-131625],,,,,,,,,26.3,-30.0,-18.5,-5.6,-4.8,-23.0,21.6,-0.55,
CC(=O)c1ccc(NC(=O)NNC(=O)c2ccc(CCN3CCC(c4nc(COCC(F)(F)F)c(-c5ccc(F)cc5)o4)CC3)cc2)cc1 [TCMDC-131905],,,,,,,,,1.3,7.6,18.2,9.5,5.8,-31.0,36.9,3.6,
COc1cc2ncnc(Nc3ccc(OCc4ccccc4)c(OCc4ccccc4)c3)c2cc1OC.Cl [TCMDC-131922],5.7,10.5,8.7,6.9,10.3,5.3,31.5,4.3,,,,,,,,,"HitlevelM [1, 8]: 0; Activity [1, 7]: 0; HitlevelF [2, 9]: 0"
Nc1nc(N)c2c(ccc3c2cnn3Cc2cccnc2)n1 [TCMDC-131932],12.5,4.3,31.7,1.1,18.1,3.3,58.3,1.8,,,,,,,,,"HitlevelM [1, 4]: 0; HitlevelF [2, 5]: 1"
COc1ccc2nc(Nc3nc4cnccc4[nH]3)sc2c1 [TCMDC-131950],-15.4,-6.4,-26.4,-8.5,7.4,12.1,-4.5,3.8,,,,,,,,,"HitlevelM [1, 8]: 0; Activity [1, 7]: 0; HitlevelF [2, 9]: 0"
O=[N+]([O-])c1ccc(C=NO)nc1 [TCMDC-131967],,,,,,,,,,,,,,,,,"Average inhibition male (%) [1, 10]: 97.7%; % inhibition male (individual replicates) R1 [1, 10]: 97.9%; % inhibition male (individual replicates) R3 [1, 10]: 95.1%; % inhibition male (individual replicates) R4 [1, 10]: 101.6%; Average inhibition female (%) [2, 10]: 41.1%; % inhibition female (individual replicates) R1 [2, 10]: 34.5%; % inhibition female (individual replicates) R3 [2, 10]: 28.1%; % inhibition female (individual replicates) R4 [2, 10]: 43.8%"
CS(=O)(=O)c1ccc(-n2nc(C(F)(F)F)cc2-c2ccc(C=NOCC(=O)O)o2)cc1 [TCMDC-132015],,,,,,,,,7.6,-4.4,-18.5,-6.3,5.4,-21.4,0.25,-6.9,
CCc1c(CCNCCCCCCNCCc2ccc(Br)cc2)ccc(OC)c1OC.Cl [TCMDC-132045],,,,,,,,,-2.0,7.0,22.9,10.8,-8.2,-48.0,-18.3,-21.6,
CCc1c(CCNCCCCCCNCCc2ccc(OC)c(OC)c2CC)ccc(OC)c1OC.Cl [TCMDC-132047],61.2,56.6,45.7,80.2,17.9,11.5,7.6,17.6,,,,,,,,,"HitlevelM [1, 4]: 3; HitlevelF [2, 5]: 0"
CCc1c(CCNCCCCCCNC(C)Cc2ccc3c(c2CC)OCO3)ccc(OC)c1OC.Cl (stereo not drawn) [TCMDC-132052],,,,,,,,,,,,,,,,,"Average inhibition male (%) [1, 11]: 79.1%; % inhibition male (individual replicates) R1 [1, 11]: 84.5%; % inhibition male (individual replicates) R3 [1, 11]: 62.9%; % inhibition male (individual replicates) R4 [1, 11]: 90.9%; HitlevelM ([1]; number of replicates with >50% inhibition in the male readout, 2µM): 4; Average inhibition female (%) [2, 11]: 26.4%; % inhibition female (individual replicates) R1 [2, 11]: 34.8%; % inhibition female (individual replicates) R3 [2, 11]: 2.4%; % inhibition female (individual replicates) R4 [2, 11]: 23.2%; HitlevelF ([2]; number of replicates with >50% inhibition in the female readout, 2µM): 0"
CCc1c(CCNCCCCCCNCCc2ccc([N+](=O)[O-])cc2)ccc(OC)c1OC.Cl [TCMDC-132066],38.6,42.7,1.6,56.2,24.7,23.1,5.5,16.3,,,,,,,,,"HitlevelM [1, 4]: 2; HitlevelF [2, 5]: 1"
CCc1c(CCNCCCCCCNCc2ccc3c(c2CC)OCO3)ccc(OC)c1OC.Cl [TCMDC-132068],39.4,42.2,19.5,56.9,13.2,18.0,-2.7,25.3,,,,,,,,,"HitlevelM [1, 8]: 1; Activity [1, 7]: 0; HitlevelF [2, 9]: 0"
